Experimental data published in ChEMBL document CHEMBL3046335, “Prediction of anti-HIV activity of imidoyl thioureas: QSAR approach” (Med Chem Res, 2009).

Columns and labels:
[1] = system: Human immunodeficiency virus 1; experiment: microbe, parasite or virus in culture; settings: Human immunodeficiency virus 1, read-out: pIC50 (converted)
Description: Antiviral activity against wild type Human immunodeficiency virus 1

[2] = physchem; settings: octanol/water
Description: Octanol-water partition coefficient, log P of the compound

Q: Which IC50 [1] does the source give for `N#C/N=C(\NCCc1ccc(C#N)cc1)N/C(Cc1c(Cl)cccc1Cl)=N\c1ccccc1` here?
A: Its IC50 is 158 nM.

Q: What about the logP [2] of the same compound?
A: The logP was 5.98.

Q: With `CN(C)C(Cc1c(Cl)cccc1Cl)NC(=N)Nc1ccc(C#N)cc1` (stereo not drawn) as the compound, how does the IC50 [1] read?
A: Its IC50 is 757 nM.

Q: What about the logP [2] of the same compound?
A: The logP was 7.06.

Q: Which IC50 [1] does the source give for `N=C(Cc1c(Cl)cccc1Cl)NC(=S)Nc1ccc(Cl)cc1` here?
A: The IC50 was 13 nM.

Q: What about the logP [2] of the same compound?
A: Its logP is 4.19.

Q: What does the source list for `N#Cc1ccc(NC(=S)NC(=N)Cc2c(Cl)cccc2Cl)cc1`?
A: IC50 [1]: 126 nM; logP [2]: 4.83

Q: With `N#Cc1ccc(NC(=S)NC(=N)C2(c3c(Cl)cccc3Cl)CC2)cc1` as the compound, how does the IC50 [1] read?
A: Its IC50 is 676 nM.

Q: And the logP [2]?
A: Its logP is 6.11.

Q: For `C/N=C(/Cc1c(Cl)cccc1Cl)NC(=O)Nc1ccc(C#N)cc1`, which IC50 [1] is on record?
A: The IC50 was 214 nM.

Q: And the logP [2]?
A: The logP was 5.96.

Q: What does the source list for `N#Cc1ccc(NC(=S)NC(=N)c2c(Cl)cccc2Cl)cc1`?
A: IC50 [1]: 43.7 nM; logP [2]: 5.46

Q: Which IC50 [1] does the source give for `CN/C(Cc1c(Cl)cccc1Cl)=N\C(S)=N\c1ccc(C#N)cc1` here?
A: Its IC50 is 77.4 nM.

Q: And the logP [2]?
A: The logP was 6.75.

Q: Which logP [2] does the source give for `CN(C)C(Cc1c(Cl)cccc1Cl)/N=C(\S)Nc1ccc(C#N)cc1` (stereo not drawn) here?
A: The logP was 5.64.

Q: For `N#Cc1ccc(N/C(S)=N/C(=N)Cc2c(F)cccc2F)cc1`, which IC50 [1] is on record?
A: The IC50 was 6 nM.

Q: And the logP [2]?
A: The logP was 2.95.

Q: With `N=C(Cc1c(Cl)cccc1Cl)NC(=S)NCc1ccc(Cl)cc1` as the compound, how does the IC50 [1] read?
A: Its IC50 is 692 nM.

Q: And the logP [2]?
A: The logP was 5.97.

Q: With `Cc1ccccc1CC(=N)/N=C(\S)Nc1ccc(C#N)cc1` as the compound, how does the IC50 [1] read?
A: The IC50 was 26 nM.

Q: And the logP [2]?
A: The logP was 3.13.

Q: Which IC50 [1] does the source give for `COc1ccccc1CC(=N)/N=C(\S)Nc1ccc(C#N)cc1` here?
A: The IC50 was 30 nM.

Q: And the logP [2]?
A: Its logP is 2.42.

Q: With `N#Cc1ccc(NC(=S)NC(=N)Cc2ccccc2)cc1` as the compound, how does the IC50 [1] read?
A: Its IC50 is 380 nM.

Q: What about the logP [2] of the same compound?
A: The logP was 2.67.

Q: Which results are given for `N#Cc1ccc(NC(=S)NC(=N)Cc2cccc(Cl)c2)cc1`?
A: IC50 [1]: 67.9 nM; logP [2]: 3.19

Q: For `N#Cc1ccc(NC(=S)NC(=N)Cc2ccc(Cl)cc2Cl)cc1`, which IC50 [1] is on record?
A: Its IC50 is 7 nM.

Q: And the logP [2]?
A: The logP was 3.7.

Q: Which IC50 [1] does the source give for `N=C(Cc1c(Cl)cccc1Cl)NC(=S)Nc1ccc(Cl)cc1Cl` here?
A: The IC50 was 347 nM.

Q: And the logP [2]?
A: Its logP is 4.7.

Q: With `CC(C(=N)/N=C(\S)Nc1ccc(C#N)cc1)c1c(Cl)cccc1Cl` (stereo not drawn) as the compound, how does the IC50 [1] read?
A: The IC50 was 158 nM.

Q: What about the logP [2] of the same compound?
A: Its logP is 5.95.

Q: With `N#Cc1ccc(NC(=S)NC(=N)Cc2ccccc2Cl)cc1` as the compound, how does the IC50 [1] read?
A: Its IC50 is 14 nM.

Q: And the logP [2]?
A: The logP was 3.19.

Q: What does the source list for `N#Cc1ccc(NC(=S)NC(=N)CCc2c(Cl)cccc2Cl)cc1`?
A: IC50 [1]: 525 nM; logP [2]: 5.79

Q: For `N=C(Cc1c(Cl)cccc1Cl)NC(=S)Nc1ccccc1`, which IC50 [1] is on record?
A: Its IC50 is 123 nM.

Q: What about the logP [2] of the same compound?
A: Its logP is 3.67.

Q: For `CCN/C(Cc1c(Cl)cccc1Cl)=N\C(S)=N\c1ccc(C#N)cc1`, which IC50 [1] is on record?
A: The IC50 was 195 nM.

Q: What about the logP [2] of the same compound?
A: The logP was 5.77.

Q: With `N#Cc1ccc(NC(=O)NC(=N)Cc2c(Cl)cccc2Cl)cc1` as the compound, how does the IC50 [1] read?
A: The IC50 was 15 nM.

Q: And the logP [2]?
A: Its logP is 3.71.

Q: With `N=C(Cc1c(Cl)cccc1Cl)NC(=S)NCCc1ccc(Cl)cc1` as the compound, how does the IC50 [1] read?
A: The IC50 was 617 nM.

Q: What about the logP [2] of the same compound?
A: The logP was 6.22.

Q: Which results are given for `N#Cc1cccc(NC(=S)NC(=N)Cc2c(Cl)cccc2Cl)c1`?
A: IC50 [1]: 126 nM; logP [2]: 3.7

Q: For `N#Cc1ccc(NC(=S)NC(=N)Cc2c(Cl)ccc(Cl)c2Cl)cc1`, which IC50 [1] is on record?
A: Its IC50 is 5 nM.

Q: What about the logP [2] of the same compound?
A: Its logP is 4.22.

Q: Which results are given for `N#Cc1ccc(NC(=S)NC(=N)Cc2ccc(Cl)cc2)cc1`?
A: IC50 [1]: 148 nM; logP [2]: 3.19
